# Laboratory results from PubChem BioAssay (NCI).
# Where “and” joins values, the source holds several entries; their conditions need not be identical. Equal entries are not always repeated.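 96-well plates; 48 h exposure; 5 concentrations. Endpoints by linear interpolation between flanking doses. Not reached: highest tested concentration assigned. Here, GI50 denotes the concentration required for 50% inhibition of growth. TGI is the concentration that stops growth completely.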
# Experiments:
# Test in all cases: NCI anticancer screen, dose series, 48 h
# [1] = test system: TK-10 renal
# [2] = test system: HCT-15 colon
# [3] = test system: COLO 205 colon
# [4] = test system: SK-MEL-2 melanoma
# [5] = test system: SN12C renal
# [6] = test system: OVCAR-5 ovarian
# [7] = test system: HL-60(TB) leukemia
# [8] = test system: MCF7 breast
# [9] = test system: HOP-92 NSCLC
# [10] = test system: HOP-62 NSCLC
Structure (SMILES),GI50 [1],TGI [1],GI50 [2],TGI [2],GI50 [3],TGI [3],GI50 [4] [µM],TGI [4] [µM],GI50 [5],TGI [5],GI50 [6],TGI [6],GI50 [7],TGI [7],GI50 [8] [µM],TGI [8],GI50 [9],TGI [9],GI50 [10],TGI [10]
COC(=O)c1cc2c([nH]c3ccccc32)c(-c2nc3ccccc3cc2CO)n1,> 100 µM,> 100 µM,> 100 µM,> 100 µM,> 100 µM,> 100 µM,> 100,> 100,> 100 µM,> 100 µM,> 100 µM,> 100 µM,24.9 µM,50.2 µM,> 100,> 100 µM,53.5 µM,> 100 µM,,
C=C1C(=O)O[C@H]2C3OC3(C)CC/C=C(/C(=O)OC)[C@@H](OC(C)=O)[C@H](OC(=O)C3(C)OC3C)[C@H]12 (stereo partly specified),1.63 µM and 3.42 µM and 0.719 µg/mL,3.24 µM and 9.88 µM and 2.43 µg/mL,899 nM and 3.85 µM and 0.482 µg/mL,2.78 µM and 32.2 µM and 2.13 µg/mL,506 nM and 487 nM and 0.263 µg/mL,1.81 µM and 1.86 µM and 0.495 µg/mL,,,1.5 µM and 2.97 µM and 2.45 µg/mL,4.68 µM and 10.4 µM and 6.03 µg/mL,2.6 µg/mL,8.82 µM and 4.66 µg/mL,154 nM and 0.285 µg/mL,477 nM and 655 nM and 0.679 µg/mL,0.334,7.16 µM and 1.28 µM,0.817 µg/mL,3.13 µM and 1.26 µg/mL,11.9 µM and 5.74 µg/mL,24.3 µM and 18.1 µg/mL
O=C(O)C1C2C=CC(O2)C1C(=O)NCc1ccncc1 (stereo unspecified),,> 100 µM,,,,> 100 µM,,> 100,,> 100 µM,,> 100 µM,,> 100 µM,,> 100 µM,,> 100 µM,,> 100 µM
N#Cc1ccc(O)c(C2=NCC(c3ccc(-c4ccccc4)cc3)O2)c1 (stereo unspecified),,,0.0896 µM,20.4 µM,0.349 µM,14.8 µM,0.746,15.8,0.606 µM,16.9 µM,0.941 µM,28.9 µM,0.416 µM,3.73 µM,0.343,11.8 µM,0.421 µM,22.5 µM,0.41 µM,10.9 µM
CN1CCN(C(=O)[C@@]2(C)CC[C@]3(C)CC[C@]4(C)C(=CC[C@@H]5[C@@]6(C)CC[C@H](OC(=O)c7cccnc7)C(C)(C)[C@@H]6CC[C@]54C)[C@@H]3C2)CC1,1.79 µM,3.31 µM,1.4 µM,2.8 µM,1.83 µM,3.94 µM,13.2,28.6,1.56 µM,3.15 µM,1.69 µM,3.42 µM,1.44 µM,3.36 µM,1.49,3.17 µM,1.38 µM,3.2 µM,,
